Data taken from patent US20090042726A1, “Novel Herbicides” (SYNGENTA LIMITED, priority 2005, published 2009).

Test system: Monocotyledonous and dicotyledonous test plants
Assay: Herbicidal action, application pre-emergence (Example B1)
Type: in vivo
Set-up: key: 10=total damage to plant; 0=no damage to plant
Conditions: 1000 g/ha, evaluated after 9 or 13 days; for AGSTE herbicidal action (damage score 0-10): Agrostis-tenius; for AMARE herbicidal action (damage score 0-10): Amaranthus retroflexus; for DIGSA herbicidal action (damage score 0-10): Digitaria sanguinalis; for POATR herbicidal action (damage score 0-10): Poa trivialis; for SETIT herbicidal action (damage score 0-10): Setaria italica
Method: Monocotyledonous and dicotyledonous test plants were sown in sterilised standard soil in seed trays each having 96 cells. After one day (pre-emergence) under controlled conditions in a climatic chamber (cultivation at 23/17° C., day/night; 13 hours light; 50-60% humidity; after application at 24/19° C., day/night), the plants were treated with an aqueous spray solution of 1000 mg/l of the active ingredient used (including 10% DMSO as solvent). The plants were grown on in the climatic chamber until the test was evaluated (10=total damage to plant, 0=no damage to plant) after 9 or 13 days.

Structure (SMILES): Cn1nc(C(F)(F)F)c(C[S+]([O-])C2=NOC(C)(C)C2Br)c1OCC(F)(F)F (mixture of isomers) [2.02]
- AGSTE herbicidal action (damage score 0-10): 10
- AMARE herbicidal action (damage score 0-10): 7
- DIGSA herbicidal action (damage score 0-10): 10
- POATR herbicidal action (damage score 0-10): 5
- SETIT herbicidal action (damage score 0-10): 7

Structure (SMILES): Cn1nc(C(F)(F)F)c(C[S+]([O-])C2=NOC(C)(C)C2F)c1OCC(F)(F)F (mixture of isomers) [2.08]
- AGSTE herbicidal action (damage score 0-10): 10
- AMARE herbicidal action (damage score 0-10): 10
- DIGSA herbicidal action (damage score 0-10): 10
- POATR herbicidal action (damage score 0-10): 10
- SETIT herbicidal action (damage score 0-10): 10

Structure (SMILES): Cn1nc(C(F)(F)F)c(C[S+]([O-])C2=NOC(C)(C)C2Cl)c1OC(F)F (mixture of isomers) [2.17]
- AGSTE herbicidal action (damage score 0-10): 10
- AMARE herbicidal action (damage score 0-10): 6
- DIGSA herbicidal action (damage score 0-10): 10
- POATR herbicidal action (damage score 0-10): 10
- SETIT herbicidal action (damage score 0-10): 9

Structure (SMILES): Cn1nc(C(F)(F)F)c(C[S+]([O-])C2=NOC(C)(C)C2F)c1OC(F)F (mixture of isomers) [2.23]
- AGSTE herbicidal action (damage score 0-10): 10
- AMARE herbicidal action (damage score 0-10): 10
- DIGSA herbicidal action (damage score 0-10): 10
- POATR herbicidal action (damage score 0-10): 10
- SETIT herbicidal action (damage score 0-10): 10

Structure (SMILES): Cn1cc(C[S+]([O-])C2=NOC(C)(C)C2F)c(C(F)(F)F)n1 (mixture of isomers) [2.33]
- AGSTE herbicidal action (damage score 0-10): 10
- AMARE herbicidal action (damage score 0-10): 6
- DIGSA herbicidal action (damage score 0-10): 9
- POATR herbicidal action (damage score 0-10): 9
- SETIT herbicidal action (damage score 0-10): 9

Structure (SMILES): CC(Oc1c(CS(=O)(=O)C2=NOC(C)(C)C2F)c(C(F)(F)F)nn1C)C(F)(F)F (mixture of isomers) [2.37]
- AGSTE herbicidal action (damage score 0-10): 10
- AMARE herbicidal action (damage score 0-10): 8
- DIGSA herbicidal action (damage score 0-10): 9
- POATR herbicidal action (damage score 0-10): 10
- SETIT herbicidal action (damage score 0-10): 9

Structure (SMILES): CCn1cc(C[S+]([O-])C2=NOC(C)(C)C2F)c(C(F)(F)F)n1 (mixture of isomers) [2.46]
- AGSTE herbicidal action (damage score 0-10): 10
- AMARE herbicidal action (damage score 0-10): 10
- DIGSA herbicidal action (damage score 0-10): 9
- POATR herbicidal action (damage score 0-10): 10

Structure (SMILES): C#CCn1cc(C[S+]([O-])C2=NOC(C)(C)C2F)c(C(F)(F)F)n1 (mixture of isomers) [2.49]
- AGSTE herbicidal action (damage score 0-10): 10
- AMARE herbicidal action (damage score 0-10): 10
- DIGSA herbicidal action (damage score 0-10): 10
- POATR herbicidal action (damage score 0-10): 10

Structure (SMILES): C=CCn1cc(C[S+]([O-])C2=NOC(C)(C)C2F)c(C(F)(F)F)n1 (mixture of isomers) [2.52]
- AGSTE herbicidal action (damage score 0-10): 10
- AMARE herbicidal action (damage score 0-10): 9
- DIGSA herbicidal action (damage score 0-10): 9
- POATR herbicidal action (damage score 0-10): 9

Structure (SMILES): COCCOc1c(C[S+]([O-])C2=NOC(C)(C)C2F)c(C(F)(F)F)nn1C (mixture of isomers) [2.58]
- AGSTE herbicidal action (damage score 0-10): 10
- AMARE herbicidal action (damage score 0-10): 10
- DIGSA herbicidal action (damage score 0-10): 10
- POATR herbicidal action (damage score 0-10): 10

Structure (SMILES): Cc1nc(C(F)(F)F)ccc1C[S+]([O-])C1=NOC(C)(C)C1F (mixture of isomers) [3.02]
- AGSTE herbicidal action (damage score 0-10): 10
- AMARE herbicidal action (damage score 0-10): 7
- DIGSA herbicidal action (damage score 0-10): 9
- POATR herbicidal action (damage score 0-10): 10
- SETIT herbicidal action (damage score 0-10): 8

Structure (SMILES): CC1(C)ON=C([S+]([O-])Cc2cccnc2Cl)C1F (mixture of isomers) [3.05]
- AGSTE herbicidal action (damage score 0-10): 9
- AMARE herbicidal action (damage score 0-10): 10
- DIGSA herbicidal action (damage score 0-10): 8
- POATR herbicidal action (damage score 0-10): 10

Structure (SMILES): Cn1cc(C(F)(F)F)c(C[S+]([O-])C2=NOC(C)(C)C2F)n1 (mixture of isomers) [4.02]
- AGSTE herbicidal action (damage score 0-10): 10
- AMARE herbicidal action (damage score 0-10): 9
- DIGSA herbicidal action (damage score 0-10): 9
- POATR herbicidal action (damage score 0-10): 10
- SETIT herbicidal action (damage score 0-10): 9

Structure (SMILES): Cn1nc(C(F)(F)F)cc1C[S+]([O-])C1=NOC(C)(C)C1F (mixture of isomers) [6.02]
- AGSTE herbicidal action (damage score 0-10): 10
- AMARE herbicidal action (damage score 0-10): 10
- DIGSA herbicidal action (damage score 0-10): 9
- POATR herbicidal action (damage score 0-10): 10

Structure (SMILES): Cn1nc(C(F)(F)F)cc1C[S+]([O-])C1=NOC(C)(C)C1F (mixture of isomers) [6.03]
- AGSTE herbicidal action (damage score 0-10): 10
- AMARE herbicidal action (damage score 0-10): 8
- DIGSA herbicidal action (damage score 0-10): 9
- POATR herbicidal action (damage score 0-10): 10

Structure (SMILES): Cn1nc(OC(F)F)cc1C[S+]([O-])C1=NOC(C)(C)C1F (mixture of isomers) [6.09]
- AGSTE herbicidal action (damage score 0-10): 10
- AMARE herbicidal action (damage score 0-10): 10
- DIGSA herbicidal action (damage score 0-10): 9
- POATR herbicidal action (damage score 0-10): 9

Structure (SMILES): COc1cc(C[S+]([O-])C2=NOC(C)(C)C2F)n(C)n1 (mixture of isomers) [6.12]
- AGSTE herbicidal action (damage score 0-10): 10
- AMARE herbicidal action (damage score 0-10): 10
- DIGSA herbicidal action (damage score 0-10): 10
- POATR herbicidal action (damage score 0-10): 10

Structure (SMILES): CC1(C)ON=C([S+]([O-])Cc2nn(C3CCCC3)nc2C(F)(F)F)C1F (mixture of isomers) [7.13]
- AGSTE herbicidal action (damage score 0-10): 10
- AMARE herbicidal action (damage score 0-10): 4
- DIGSA herbicidal action (damage score 0-10): 9
- POATR herbicidal action (damage score 0-10): 8

Structure (SMILES): COCCn1nc(C[S+]([O-])C2=NOC(C)(C)C2F)c(C(F)(F)F)n1 (mixture of isomers) [7.19]
- AGSTE herbicidal action (damage score 0-10): 6
- AMARE herbicidal action (damage score 0-10): 10
- DIGSA herbicidal action (damage score 0-10): 9
- POATR herbicidal action (damage score 0-10): 10

Structure (SMILES): Cn1ncc(C[S+]([O-])C2=NOC(C)(C)C2F)n1 (mixture of isomers) [7.22]
- AGSTE herbicidal action (damage score 0-10): 9
- AMARE herbicidal action (damage score 0-10): 0
- DIGSA herbicidal action (damage score 0-10): 8
- POATR herbicidal action (damage score 0-10): 9

Structure (SMILES): CCc1nn(C)nc1C[S+]([O-])C1=NOC(C)(C)C1F (mixture of isomers) [7.32]
- AGSTE herbicidal action (damage score 0-10): 10
- AMARE herbicidal action (damage score 0-10): 7
- DIGSA herbicidal action (damage score 0-10): 9
- POATR herbicidal action (damage score 0-10): 9

Structure (SMILES): CCn1ncc(C[S+]([O-])C2=NOC(C)(C)C2F)n1 (mixture of isomers) [7.35]
- AGSTE herbicidal action (damage score 0-10): 10
- AMARE herbicidal action (damage score 0-10): 8
- DIGSA herbicidal action (damage score 0-10): 9
- POATR herbicidal action (damage score 0-10): 9

Structure (SMILES): Cc1nn(C(C)C)nc1C[S+]([O-])C1=NOC(C)(C)C1F (mixture of isomers) [7.38]
- AGSTE herbicidal action (damage score 0-10): 10
- AMARE herbicidal action (damage score 0-10): 6
- DIGSA herbicidal action (damage score 0-10): 7
- POATR herbicidal action (damage score 0-10): 7

Structure (SMILES): Cn1nnc(Br)c1C[S+]([O-])C1=NOC(C)(C)C1F (mixture of isomers) [11.02]
- AGSTE herbicidal action (damage score 0-10): 10
- AMARE herbicidal action (damage score 0-10): 5
- DIGSA herbicidal action (damage score 0-10): 9
- POATR herbicidal action (damage score 0-10): 10

Structure (SMILES): CC(c1c(C(F)(F)F)nn(C)c1OCC(F)(F)F)S(=O)(=O)C1=NOC(C)(C)C1F (mixture of isomers) [Compound No. 2.12]
- AGSTE herbicidal action (damage score 0-10): 10
- AMARE herbicidal action (damage score 0-10): 6
- DIGSA herbicidal action (damage score 0-10): 9
- POATR herbicidal action (damage score 0-10): 10
- SETIT herbicidal action (damage score 0-10): 9

Structure (SMILES): CC(c1c(C(F)(F)F)nn(C)c1OC(F)F)S(=O)(=O)C1=NOC(C)(C)C1F (mixture of isomers) [Compound No. 2.27]
- AGSTE herbicidal action (damage score 0-10): 10
- AMARE herbicidal action (damage score 0-10): 10
- DIGSA herbicidal action (damage score 0-10): 10
- POATR herbicidal action (damage score 0-10): 10
- SETIT herbicidal action (damage score 0-10): 10

Structure (SMILES): CC1(C)ON=C([S+]([O-])Cc2c(F)cccc2F)C1F (single isomer, unassigned) [1.15]
- AGSTE herbicidal action (damage score 0-10): 10
- AMARE herbicidal action (damage score 0-10): 9
- DIGSA herbicidal action (damage score 0-10): 9
- POATR herbicidal action (damage score 0-10): 10
- SETIT herbicidal action (damage score 0-10): 9

Structure (SMILES): CC1(C)ON=C([S+]([O-])Cc2c(F)cccc2F)C1F (single isomer, unassigned) [1.16]
- AGSTE herbicidal action (damage score 0-10): 10
- AMARE herbicidal action (damage score 0-10): 8
- DIGSA herbicidal action (damage score 0-10): 10
- POATR herbicidal action (damage score 0-10): 10
- SETIT herbicidal action (damage score 0-10): 6

Structure (SMILES): Cn1nc(C(F)(F)F)c(C[S+]([O-])C2=NOC(C)(C)C2F)c1OCC(F)(F)F (single isomer, unassigned) [2.09]
- AGSTE herbicidal action (damage score 0-10): 10
- AMARE herbicidal action (damage score 0-10): 9
- DIGSA herbicidal action (damage score 0-10): 9
- POATR herbicidal action (damage score 0-10): 10
- SETIT herbicidal action (damage score 0-10): 10

Structure (SMILES): Cn1nc(C(F)(F)F)c(C[S+]([O-])C2=NOC(C)(C)C2F)c1OCC(F)(F)F (single isomer, unassigned) [2.10]
- AGSTE herbicidal action (damage score 0-10): 10
- AMARE herbicidal action (damage score 0-10): 8
- DIGSA herbicidal action (damage score 0-10): 10
- POATR herbicidal action (damage score 0-10): 10
- SETIT herbicidal action (damage score 0-10): 9

Structure (SMILES): Cn1nc(C(F)(F)F)c(C[S+]([O-])C2=NOC(C)(C)C2F)c1OC(F)F (single isomer, unassigned) [2.24]
- AGSTE herbicidal action (damage score 0-10): 10
- AMARE herbicidal action (damage score 0-10): 10
- DIGSA herbicidal action (damage score 0-10): 10
- POATR herbicidal action (damage score 0-10): 10
- SETIT herbicidal action (damage score 0-10): 10
